Results as given in patent publication US20070276032A1, “Use of 8-Prenylnaringenin for Hormone Replacement Therapy” (priority 2003, published 2007).
Values joined by “and” are separate entries in the source; they are usually repeats but may differ in a detail not shown here. Equal entries are not always repeated.

Tests used:
ovariectomized rats [1] = experiment: Ex vivo BMD (pQCT) of proximal tibia, 2S(−) 8-PN in ovariectomized rats (Example 3); design: species or system Sprague-Dawley rats; details: animal study with synthetic relatively pure preparation
Experimental: (§1) The aim of the study was to examine bone and uterine effects of a 4-week treatment with 2S(−) 8-Prenylnaringenin (8-PN) in 3-month-old ovariectomized rats. […] At the end of the study, uterine weight and ex vivo bone mineral density (BMD) of tibia were measured.
(§2) A total of 30 female 13-14-week-old Sprague-Dawley rats were used in the study. The animals were randomized into 5 groups, with 6 rats/group. Group 1 was sham-operated (SHAM) and groups 2-5 were ovariectomized (OVX).
(§3) Treatments with the vehicle or test substance started on the day following operation. […] The animals were sacrificed one day after the last dosing. At the end of the study, left tibiae were excised for ex vivo BMD measurement (pQCT) at proximal tibia and uteri were excised for the determination of absolute and relative weights. In addition, samples for the determination of 2S(−)8-Prenylnaringenin concentration were taken from all dosing solutions on the day when they were prepared and on the last day of use. The data of body weights, relative uterine weights and BMD were analyzed with one-way analysis of variance.
Bone mineral density measurement was carried out by pQCT (XCT-960A, Stratec, Germany). The bone specimens were thawed before measurement. Six 1 mm-thick sections of the proximal tibia (2 mm below the epiphyseal growth plate) were scanned at 0.5 mm intervals using a voxel size of 0.148 mm. Total and trabecular BMD (mg/cm^3) were measured. After bone densitometry, the specimens were wrapped back to saline saturated gauzes and stored at −20° C.

ovariectomized rats [2] = experiment: Relative uterine weight, 2S(−) 8-PN in ovariectomized rats (Example 3); format: in vivo, Sprague-Dawley rats
Experimental: as §1, §2, §3
Relative uterine weight was calculated as percentage of body weight

ovariectomized rats [3] = experiment: Trabecular density of proximal tibia, 8-PN racemic, 2S(−) 8-PN and estradiol hemihydrate in ovariectomized rats (Example 4); format: in vivo, Sprague-Dawley rats; details: OVX rats; s.c. 28 days; 20 mg/kg/d in HP-β-CD
Experimental: (§4) The aim of the study was to directly compare the effects of Prenylnaringenin (racemate) and 2S(−) 8-Prenylnaringenin to the effects of estradiol hemihydrate on bone mineral density and uterine weight on 3-month-old ovariectomized rats using identical formulations. In addition, the effects of estradiolhemihydrate in two vehicles (oily, aqueous) were examined for influence of formulations. The substances were administered subcutaneously(s.c.) seven days a week beginning the day after ovariectomy. At the end of the study, uterine weight and bone mineral density (BMD) of tibia were measured.
(§5) Forty-one female Sprague-Dawley rats, 12-14 weeks of age were randomized into six groups, 6-8 animals in each. Five groups were ovariectomized (OVX) and one group was sham-operated (SHAM). Treatments started on the day following operation and continued for 28 days. The animals were treated s.c. once a day seven times a week as follows. Group 1 (SHAM vehicle group) and group 2 (OVX vehicle group) were given the vehicle 30% hydroxypropyl-β-cyclodextrin (HP-β-CD). Groups 3 and 4 were administered 4 μg/kg/d of estradiol hemihydrate in vehicle benzyl benzoate/ricinus oil (B/R) and in vehicle HP-β-CD, respectively. Groups 5 and 6 were given 20 mg/kg/d of 2S(−)8-Prenylnaringenin and racemic 8-Prenylnaringenin, respectively, both in vehicle HP-β-CD. At the end of the study, left tibiae were excised for the ex vivo BMD […] were taken from all dosing solutions on the first and last day of use.
(§6) Vehicle 1 (used in the groups 1 and 2): 30% hydroxypropyl-β-cyclodextrin and 0.3% NaCl (w/v), 5% ethanol (v/v) in Aqua sterilisata, pH 7.4.
(§7) Vehicle 2 (used when preparing dosing solutions of the groups 4, 5 and 6): 30% hydroxypropyl-β-cyclodextrin and 0.3% NaCl (w/v) in Aqua sterilisata, pH 7.4.
(§8) Vehicle 3 (used when preparing a dosing solution of the group 3): benzyl benzoate/ricinus oil (B/R) 1+4, v/v.

ovariectomized rats [4] = experiment: Relative uterus weight, 8-PN racemic, 2S(−) 8-PN and estradiol hemihydrate in ovariectomized rats (Example 4); format: in vivo, Sprague-Dawley rats; details: OVX rats
Experimental: as §4, §5, §6, §7, §8

[5] = Body weight, 8-PN racemic, 2S(−) 8-PN and estradiol hemihydrate in ovariectomized rats (Example 4); format: in vivo, Sprague-Dawley rats; details: OVX rats; s.c. once a day, 28 days; 20 mg/kg/d in HP-β-CD
Experimental: as §4, §5, §6, §7, §8

ERE-Luc = experiment: Estrogenic activity in the estrogen reporter mouse ERE-Luc model, luciferase activity in organs (Example 5); format: in vivo, mice
Experimental: In order to avoid experimental noise male animals were used.
Fourtyfive heterozygous male ERE-Luc mice of two months of age were fed with soy-free diet for two weeks before assigning them to each experimental group then all the mice were injected intraperitoneally (i.p.) with 250 μl of an oily solution containing the following compounds: • 1. Experimental group 1: vehicle • 2. Experimental group 2: 17β-estradiol at 1.5 μg/kg • 3. Experimental group 3: 2S(−)-8-PN at 30 mg/kg • 4. […] Experimental group 5: genistein at 30 mg/kg.
The treatment was carried out in experimental groups of three mice each and repeated three times (therefore numbers reflect the average of […] determinations on a total of 9 animals).
Six hours after the injection, mice were sacrificed by cervical dislocation and organs were dissected and frozen on dry ice. The following organs were analyzed for lucifererase activity by enzymatic assay: prostate, liver, bone, brain.
Data represent means ±standard deviation of N=9 animals per group.
Analysis of variance (ANOVA) for overall comparison was followed by Tukey test for paired comparisons. All statistical procedures were carried out with Systat and SAS (*P<0.05; **P<0.01).

[6] = reported; cited from earlier work
[7] = at the bone loss protective dose; Miyamoto et al 1998; cited from earlier work
[8] = s.c. 28 days, 20 mg/kg/d in HP-β-CD, calculated as percentage of body weight

In the case of CC(C)=CCc1c(O)cc(O)c2c1OC(c1ccc(O)cc1)CC2=O (racemic) [8-Prenylnaringenin, 5,7-Dihydroxy-2-(4-hydroxyphenyl)-8-(3-methylbut-2-enyl)-chroman-4-on], the “effect on bone loss” value (ovariectomized rats [1]) is reported as “prevents bone loss in a dose dependent manner”, the “effect on uterus growth and endometrial stimulation” value (ovariectomized rats [2]; animal study with synthetic relatively pure preparation) is reported as “only a minimal and dose independent effect on uterus growth and endometrial stimulation” and the “effect on uterus proliferation relative to that of estradiol” value (ovariectomized rats [2]; doses equi-effective on protection of bone loss) is reported as “less than ⅕ and 1/10”. For the same molecule, the “estrogenic effect on the uterus, equivalent oral estradiol dose” value (ovariectomized rats [2]; extended to women treated with a bone protective dose) was 0.1 to 0.2 mg/day, the “Trabecular density at left proximal tibia, Mean” value (ovariectomized rats [3]) was 351 mg/cm3 and the “Trabecular density at left proximal tibia, Median” value (ovariectomized rats [3]) was 351 mg/cm3. For the same molecule, the “effect on the uterus and body weight compared with estradiol in the same vehicle (HP-β-CD)” value (ovariectomized rats [4]; 20 mg/kg/d vs estradiol 4 μg/kg/d, same bone effective dose) was “much lower effect on the uterus and body weight than estradiol at the same bone effective dose”, the “Relative uterus weight, Mean” value (ovariectomized rats [4]; [8]) was 0.066 and the “Relative uterus weight, Median” value (ovariectomized rats [4]; [8]) was 0.065. The “Body weight at The end (bw4b)” value [5] was 289(8) g, the “The change in Body weight (bw4b-bw0)” value [5] was 27(2) g and the “estrogenic effect in bone and prostate tissue relative to estradiol” value (ERE-Luc; estimated at dosages leading to the same liver estrogenicity) was “twofold higher estrogenic effect in bone and prostate tissue than estradiol”. For the same molecule, the “Luciferase activity, Prostate” value (ERE-Luc; male ERE-Luc mice, i.p. 30 mg/kg, six hours after the injection, controls 0.5) was 0.9 ** arbitrary units, the “estrogenic activity relative to genistein” value [6] was “at least one order of magnitude higher than that of the isoflavone genistein” and the “effect on uterus growth” value [7] was “significant effect on uterus growth at the bone loss protective dose”.
